Measurements from patent publication US20250213566A1, “PHARMACEUTICAL COMPOSITION FOR PREVENTING OR TREATING SKIN DISEASES CAUSED BY RADIATION IRRADIATION COMPRISING DARAPLADIB OR PHARMACEUTICALLY ACCEPTABLE SALT THEREOF AS ACTIVE INGREDIENT” (KOREA INSTITUTE OF RADIOLOGICAL & MEDICAL SCIENCES, priority 2022, published 2025).

Experiments:
[1] = system: SKH-1 hairless mice; assay: Radiation-induced skin damage in SKH-1 hairless mice, appearance of skin; assay type: in vivo; conditions: day 20 after irradiation, FIG. 3
Procedure: (§1) In order to identify the effect of darapladib in improving radiation-induced skin damage, SKH-1 hairless mice, which has the most similar characteristics to the human skin layer, immune system, and vascular system, was used, and for the irradiated group, local irradiation was performed on the skin in a total of 40 Gy by irradiating two times by 20 Gy at intervals of 5 days. Darapladib was used to suppress radiation-induced skin damage, and subcutaneous injections were given at different concentrations (20 mg/kg and 40 mg/kg).

[2] = system: α-SMA; assay: α-SMA expression in irradiated skin by IHC staining, immunofluorescence and Western blot; assay type: in vivo, mice; conditions: FIG. 7
Procedure: as §1

[3] = system: SKH-1 hairless mice; assay: Histological changes in irradiated skin, hematoxylin and eosin staining, Image J quantification of adipocytes; assay type: in vivo
Procedure: In order to identify the effect of darapladib in improving radiation-induced skin damage, SKH-1 hairless mice, which has the most similar characteristics to the human skin layer, immune system, and vascular system, was used, and for the irradiated group, local irradiation was performed on the skin in a total of 40 Gy by irradiating two times by 20 Gy at intervals of 5 days. Darapladib was used to suppress radiation-induced skin damage, and subcutaneous injections were given at different concentrations (20 mg/kg and 40 mg/kg). In addition, in order to observe the histological changes in the skin, the extracted tissues were embedded by undergoing a paraffin infiltration process, a 4 μm thinned section was prepared to undergo deparaffinization and hydration followed by staining with hematoxylin and eosin, and then tissue damage, blood vessel damage, and changes in the epidermis, dermis, and adipocyte layer of skin tissue were observed using an optical microscope. In addition, to quantify the degree of skin damage, the area and number of granules in which adipocytes are present were calculated and statistically analyzed using the Image J program.

[4] = system: human fibroblasts; assay: TGF-β-induced differentiation from fibroblasts to myofibroblasts, immunofluorescence staining of collagen; assay type: cell-based; conditions: TGF-β treated fibroblasts; darapladib 0.25 nM and 0.5 nM applied 1 hour before TGF-β; vs TGF-β treated group; FIG. 1
Procedure: To identify the effect of darapladib on suppression of differentiation from fibroblasts to myofibroblasts, used was a transforming growth factor-beta (TGF-β), a growth factor that induces differentiation from human fibroblasts to myofibroblasts. Darapladib was applied to the medium at low concentration (0.25 nM) and high concentration (0.5 nM) respectively 1 hour before TGF-β treatment and then fixed with 4% formaldehyde in a live state in a single-layer culture of fibroblasts, and immunofluorescence staining of collagen was performed, followed by visualization by confocal microscopy.

[5] = system: collagen; assay: Masson's trichrome staining of irradiated skin (collagen deposition); assay type: in vivo, mice; conditions: day 20 after irradiation, IR/Dara group, FIG. 6
Procedure: as §1

[6] = system: SKH-1 hairless mice; assay: Skin moisture content (Corneometer), moisture loss (Tewameter) and skin pH after irradiation; assay type: in vivo; conditions: 40 Gy local irradiation; day 20 after irradiation; skin pH meter; FIG. 4
Procedure: as §1, with “mg/kg). In addition, in order to quantitatively observe the effect of darapladib in inhibiting radiation-induced skin damage, the moisture content, moisture loss, and pH level of the skin were measured on day 20 after irradiation. The moisture content in the skin was measured using Corneometer (Corneometer CM825, CK electronic GmbH, Germany), the moisture loss by Tewameter (TM300, CK electronic GmbH, Germany), and the pH level of the skin by a skin pH meter (pH905, CK electronic GmbH, Germany).” for “mg/kg).”

[7] = system: vimentin; assay: Vimentin expression in irradiated skin by immunohistochemistry; assay type: in vivo, mice; conditions: FIG. 8
Procedure: as §1, with “mg/kg). In addition, to identify the effect of darapladib on vimentin, which is another marker of fibrosis and applicable to immune diseases, immunohistochemistry (IHC) method was applied to stain the surface of the skin.” for “mg/kg).”

[8] = irradiated skin sections, H&E, Dara+IR group, FIG. 5A

CCN(CC)CCN(Cc1ccc(-c2ccc(C(F)(F)F)cc2)cc1)C(=O)Cn1c(SCc2ccc(F)cc2)nc(=O)c2c1CCC2 [darapladib]
fibrosis (chronic thickening of skin surface, red wounds, inflammation) ([1]; 40 Gy local irradiation (2 x 20 Gy), subcutaneous 20 mg/kg and 40 mg/kg, vs irradiated group): remarkably reduced | recovery of irradiated skin ([1]; 40 Gy local irradiation, subcutaneous 40 mg/kg (high concentration)): recovery similar to that of the control group without irradiation | expression of α-SMA ([2]; IR/Dara group vs irradiated group): reduced expression of α-SMA compared to the irradiated group | expression of α-SMA ([2]; high concentration, 40 mg/kg): expression level similar to that of the control group | adipocyte granules [3, 8]: retained | thickness of the epidermis and dermis of the skin [3, 8]: restored similar to the control group | area of adipocytes ([3]; irradiated skin, Image J, FIGS. 5B and 5C): significantly recovered | expression of collagen [4]: decreased significantly | collagen fiber or thickness of the skin layer [5]: restored to a level of the control group | skin pH [6]: remained slightly acidic | vimentin expression ([7]; IR/Dara group): decreased | vimentin expression ([7]; high concentration, 40 mg/kg): similarly to the control group
